The target of one experiment is T1, human FPR2 receptors (Homo sapiens, UniProt P25090).
T1 sequence (P25090 1-351): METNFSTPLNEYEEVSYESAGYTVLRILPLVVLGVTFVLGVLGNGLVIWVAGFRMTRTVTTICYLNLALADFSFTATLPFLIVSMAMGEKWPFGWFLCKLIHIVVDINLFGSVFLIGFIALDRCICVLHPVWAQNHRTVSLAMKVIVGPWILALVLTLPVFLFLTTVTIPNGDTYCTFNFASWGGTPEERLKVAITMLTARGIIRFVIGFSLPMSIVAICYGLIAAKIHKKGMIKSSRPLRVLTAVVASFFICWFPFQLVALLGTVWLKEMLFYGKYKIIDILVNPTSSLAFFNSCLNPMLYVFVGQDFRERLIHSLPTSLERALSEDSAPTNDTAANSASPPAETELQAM
The experiment in a line: FPR2 cyclic adenosine monophosphate (cAMP) assay. The settings on record: CHO cells overexpressing human FPR2; forskolin 5 μM, IBMX 200 μM; 30 min at rt; inhibition of cAMP production (HTRF); read-out: hFPR2 cAMP2 EC50. It is filed as cell-based. The text has this:
(§1) N-formyl peptide receptors (FPRs) are a family of chemo attractant receptors that facilitate leukocyte response during inflammation. FPRs belong to the seven-transmembrane G protein-coupled receptor superfamily and are linked to inhibitory G-proteins (Gi). Three family members (FPR1, FPR2 and FPR3) have been identified in humans and are predominantly found in myeloid cells with varied distribution and have also been reported in multiple organs and tissues. After agonist binding, the FPRs activate a multitude of physiological pathways, such as intra cellular signaling transduction, Ca^2+ mobilization and transcription. The family interacts with a diverse set of ligands that includes proteins, polypeptides and fatty acid metabolites which activate both pro-inflammatory and pro-resolution downstream responses. FPR2 and FPR1 Cyclic Adenosine Monophosphate (cAMP) Assays were used to measure the activity of the compounds in this patent.
(§2) FPR2 and FPR1 Cyclic Adenosine Monophosphate (cAMP) Assays. A mixture of forskolin (5 μM final for FPR2 or 10 μM final for FPR1) and IBMX (200 μM final) were added to 384-well Proxiplates (Perkin-Elmer) pre-dotted with test compounds in DMSO (1% final) at final concentrations in the range of 0.020 nM to 100 μM. Chinese Hamster Ovary cells (CHO) overexpressing human FPR1 or human FPR2 receptors were cultured in F-12 (Ham's) medium supplemented with 10% qualified FBS, 250 μg/mL zeocin and 300 μg/mL hygromycin (Life Technologies). Reactions were initiated by adding 2,000 human FPR2 cells per well or 4,000 human FPR1 cells per well in Dulbecco's PBS (with calcium and magnesium) (Life Technologies) supplemented with 0.1% BSA (Perkin-Elmer). The reaction mixtures were incubated for 30 min at rt. The level of intracellular cAMP was determined using the HTRF HiRange cAMP assay reagent kit (Cisbio) according to manufacturer's instruction. Solutions of cryptate conjugated anti-cAMP and d2 flurorophore-labelled cAMP were made in a supplied lysis buffer separately. Upon completion of the reaction, the cells were lysed with equal volume of the d2-cAMP solution and anti-cAMP solution. After a 1-h rt incubation, time-resolved fluorescence intensity was measured using the Envision (Perkin-Elmer) at 400 nm excitation and dual emission at 590 nm and 665 nm. A calibration curve was constructed with an external cAMP standard at concentrations ranging from 1 μM to 0.1 μM by plotting the fluorescent intensity ratio from 665 nm emission to the intensity from the 590 nm emission against cAMP concentrations. The potency and activity of a compound to inhibit cAMP production was then determined by fitting to a 4-parametric logistic equation from a plot of cAMP level versus compound concentrations.
(§3) The examples disclosed below were tested in the FPR2 and FPR1 cAMP assay described above and found having FPR2 and/or FPR1 agonist activity. Table 1 below lists EC50 values in the FPR2 and FPR1 cAMP assays measured for the following examples.

For the next experiment, the target named is T2, human FPR1 receptors (Homo sapiens, UniProt P21462).
T2 sequence (P21462 1-350): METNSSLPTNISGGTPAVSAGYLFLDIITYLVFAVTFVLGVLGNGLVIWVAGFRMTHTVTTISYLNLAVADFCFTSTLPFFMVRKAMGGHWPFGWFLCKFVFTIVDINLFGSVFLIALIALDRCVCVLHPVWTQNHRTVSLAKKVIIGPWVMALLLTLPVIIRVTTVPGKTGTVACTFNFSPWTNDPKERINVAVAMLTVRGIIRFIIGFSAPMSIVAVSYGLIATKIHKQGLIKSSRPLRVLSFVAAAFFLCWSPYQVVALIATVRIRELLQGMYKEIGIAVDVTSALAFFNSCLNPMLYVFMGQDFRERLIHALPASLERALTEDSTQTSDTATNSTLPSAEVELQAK
Briefly: FPR1 cyclic adenosine monophosphate (cAMP) assay. It is filed as cell-based. The settings on record: CHO cells overexpressing human FPR1; forskolin 10 μM, IBMX 200 μM; 30 min at rt; inhibition of cAMP production (HTRF); read-out: hFPR1 cAMP EC50.
From the text: as §1, §2, §3
(In general: Changes in cAMP serve as a functional read-out for many G protein-coupled receptors.)

These results are taken from US20220298186A1, “BIARYL DIALKYL PHOSPHINE OXIDE FPR2 AGONISTS” (BRISTOL-MYERS SQUIBB COMPANY, priority 2019, published 2022).

By EC50 is commonly meant the concentration at which the effect is half-maximal. With `CP(C)(=O)c1ccccc1-c1ccc(N2CCC[C@@H](NC(=O)Nc3ccc(OC(F)(F)F)cc3F)C2=O)c(F)c1F` [Example 16, 3-[(3R)-1-[2′-(Dimethylphosphoryl)-2,3-difluoro-[1,1′-biphenyl]-4-yl]-2-oxopiperidin-3-yl]-1-[2-fluoro-4-(trifluoromethoxy)phenyl] urea], the figures for the EC50 at human FPR2 receptors and at human FPR1 receptors were 0.0084 µM and 1.8 µM, respectively.
The matching figures for `CP(C)(=O)c1ccccc1-c1ccc(N2CCC[C@@H](NC(=O)Nc3cnc(Cl)cn3)C2=O)c(F)c1F` [Example 8, 1-(5-Chloropyrazin-2-yl)-3-[(3R)-1-[2′-(dimethylphosphoryl)-2,3-difluoro-[1,1′-biphenyl]-4-yl]-2-oxopiperidin-3-yl]urea]: 0.0015 µM and 1.1 µM.
Taken in the same sequence, the figures for `CP(C)(=O)c1ccccc1-c1cc(F)c(N2CCC[C@@H](NC(=O)Nc3ccc(C(F)(F)F)cc3F)C2=O)c(F)c1` [Example 11, 3-[(3R)-1-[2′-(Dimethylphosphoryl)-3,5-difluoro-[1,1′-biphenyl]-4-yl]-2-oxopiperidin-3-yl]-1-[2-fluoro-4-(trifluoromethyl)phenyl] urea] were 0.0026 µM and 1.7 µM.
